According to patent US20250074891A1 (Anaxis Pharma Pty Ltd., priority 2021, published 2025):
Where two headings read alike, the source gives them in different places.

Tests used:
[1] = system: U937 human histiocytic leukemia cell line; experiment: Cellular assay: inhibition of TSQ induced necroptosis (CellTitre-Glo); conditions: U937 cells, TSQ cocktail, 48 hours, Table 38, read-out: Inhibition of TSQ-induced necroptosis (IC50 cell-based assay)
In short: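 U937 cells (20,000/well) pre-dosed with compound (10-point, 1:3 from 36 μM, 0.3% DMSO), then TSQ (hTNF-Fc 100 ng/ml, Smac mimetic 500 nM, Q-VD-OPh 10 μM) for 48 h at 37 °C. Viability by CellTiter-Glo luminescence, normalised to DMSO (100%) and DMSO+TSQ (0%); IC50 from 4-parameter fit.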

endogenous MLKL in U937 = endogenous MLKL in U937 (Homo sapiens (Human), UniProt Q8NB16); experiment: Degradation assay: degradation of endogenous MLKL in human cells (Western blot); conditions: 24 h incubation, read-out: Degradation of endogenous MLKL in U937 (DC50 cell-based assay in μM)
Procedure: DEGRADATION ASSAY: Screening Compounds Procedure to Evaluate the Activity of Compounds in Degrading Endogenous MLKL in Human Cell
The human monocyte cell line (U937) was seeded on the day of the experiment in a 24-well plate at a cell density of 5*10^5 cells per well in a volume of 0.5 mL per well.
The compound was diluted in DMSO with a starting concentration of 10 mM and titrated stepwise with a dilution of 1:5. 0.5 μL of the compound dilution was added to the appropriate well to achieve a final concentration of 10; 2; 0.4; 0.08 and 0.016 μM. A DMSO only well was included as control.
The cells were incubated for 24 h in the presence of the compound at 37° C. and 10% CO2.
After the 24 h incubation period, the medium was removed and cells washed with 0.5 mL PBS. The cells were then lysed directly in 60 μL of 1×SDS gel loading buffer.
The cell lysate was heat-denatured at […] for 10 min. 10 μL of lysate per well were run on 18-well 4-15% Criterion TGX stain free gels (BIO-RAD). The proteins were then transferred onto nitrocellulose membrane with a wet transfer protocol in the Criterion Blotter (BIO-RAD).
Membranes were blocked with 5% skim milk in TBST. Primary antibody against MLKL (clone 3H1, MABC604 Merck) was used at 1:2000 dilution in TBST with 1% BSA and left shaking over night at 4° C. After washes with TBST, the membranes were incubated with goat anti-rat IgG HRP-conjugated antibody (Southern Biotech) in 1% skim milk TBST at 1:10000 dilution for 1 h at room temperature. After TBST washes the bands were imaged on the ChemiDoc MP Imaging Systm (BIO-RAD) with Immobilion Western Chemiluminescent HRP Substrate Forte (Millipore). The loading control GAPDH was probed for with rabbit anti-GAPDH (CST 14C10) at 1:2000 dilution in 1% BSA TBST over night at 4° C. TBST washes were followed by incubation with goat anti-rabbit IgG HRP-conjugated antibody (Southern Biotech) in 1% skim milk TBST at 1:10000 dilution for 1 h at room temperature followed by TBST washes. The signal was detected as described above.
The band intensity was measured in the ImageLab Software (BIO-RAD) and the MLKL values adjusted for loading with GAPDH. The percentage of degradation was calculated by normalizing the compound treated values to the DMSO only control.

MLKL (full length) = MLKL (full length) (Homo sapiens (Human), UniProt Q8NB16); experiment: KINOMEscan binding assay, MLKL (full length); conditions: Table 36
Procedure: Kinase assays. For most assays, kinase-tagged T7 phage strains were grown in parallel in 24-well blocks in an E. coli host derived from the BL21 strain. E. coli were grown to log-phase and infected with T7 phage from a frozen stock (multiplicity of infection=0.4) and incubated with shaking at 32° C. until lysis (90-150 minutes).
The Hill Slope was set to −1.

U937 cells = experiment: Counter screen: cell viability without TSQ cocktail (off-target effect); design: species or system human
Procedure: Counter screen: In parallel, all compounds were tested for their ability to affect cell viability. The same U937 cells were treated with compound in DMSO without the TSQ cocktail. This counter screen enabled evaluation of off-target effects. In this case, cell viability was measured by CelltiterGlo.

[2] = Homo sapiens, U-937, Table 38, read-out: Off-target effect (IC50 cell-based assay)

Sequence of MLKL (full length) (Q8NB16 whole entry): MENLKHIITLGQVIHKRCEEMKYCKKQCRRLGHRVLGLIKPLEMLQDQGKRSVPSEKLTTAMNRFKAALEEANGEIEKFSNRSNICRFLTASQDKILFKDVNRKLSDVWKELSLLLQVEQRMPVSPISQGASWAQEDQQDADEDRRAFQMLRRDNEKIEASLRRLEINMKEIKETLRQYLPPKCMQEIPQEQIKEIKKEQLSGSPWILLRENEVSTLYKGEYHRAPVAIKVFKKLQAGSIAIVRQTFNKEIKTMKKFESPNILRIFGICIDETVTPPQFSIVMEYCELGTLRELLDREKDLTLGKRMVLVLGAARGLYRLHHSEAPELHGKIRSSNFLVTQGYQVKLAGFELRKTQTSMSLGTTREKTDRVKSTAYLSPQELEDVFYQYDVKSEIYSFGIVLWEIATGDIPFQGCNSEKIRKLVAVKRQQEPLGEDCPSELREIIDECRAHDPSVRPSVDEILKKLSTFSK
Sequence of endogenous MLKL in U937 (Q8NB16 whole entry): as above

Row | SMILES | DC50 (endogenous MLKL in U937) [µM] | Kd (MLKL (full length)) [nM] | IC50 ([1]; Homo sapiens, U-937) [nM] | IC50 (U937 cells; [2]) [nM] | IC50 [1] [nM] | IC50 (U937 cells; Table 38, read-out: Off-target effect (IC50 cell-based assay)) [nM]
1 | CCS(=O)(=O)Nc1ccc(-c2n[nH]c(Nc3cnc(OCCCCC(=O)N[C@H](C(=O)N4C[C@H](O)C[C@H]4C(=O)NCc4ccc(-c5scnc5C)cc4)C(C)(C)C)cn3)c2C(N)=O)cc1OCc1ccc(F)cc1 [Compound 1023, 3-{4-ethanesulfonamido-3-[(4-fluorophenyl)methoxy]phenyl}-5-{[5-(4-{[(2S)-1-[(2S,4R)-4-hydroxy-2-({[4-(4-methyl-1,3-thiazol-5-yl)phenyl]methyl}carbamoyl)pyrrolidin-1-yl]-3,3-dimethyl-1-oxobutan-2-yl]carbamoyl}butoxy)pyrazin-2-yl]amino}-1H-pyrazole-4-carboxamide] | < 1 | < 10 | < 1000 | > 10000 | – | –
2 | CCS(=O)(=O)Nc1ccc(-c2n[nH]c(Nc3ccc(OCCCCC(=O)N[C@H](C(=O)N4C[C@H](O)C[C@H]4C(=O)NCc4ccc(-c5scnc5C)cc4)C(C)(C)C)cn3)c2C(N)=O)cc1OCc1ccc(F)cc1 [Compound 1024, 3-{4-ethanesulfonamido-3-[(4-fluorophenyl)methoxy]phenyl}-5-{[5-(4-{[(2S)-1-[(2S,4R)-4-hydroxy-2-({[4-(4-methyl-1,3-thiazol-5-yl)phenyl]methyl}carbamoyl)pyrrolidin-1-yl]-3,3-dimethyl-1-oxobutan-2-yl]carbamoyl}butoxy)pyridin-2-yl]amino}-1H-pyrazole-4-carboxamide] | < 1 | < 10 | < 1000 | > 10000 | – | –
3 | CCS(=O)(=O)Nc1ccc(-c2n[nH]c(Nc3ccnc(OCCOCCOCCOCCOCCNC(=O)COc4cccc5c4C(=O)N(C4CCC(=O)NC4=O)C5=O)c3)c2C(N)=O)cc1 (stereo not shown) [Compound 1001, 5-[(2-{[14-(2-{[2-(2,6-dioxopiperidin-3-yl)-1,3-dioxo-2,3-dihydro-1H-isoindol-4-yl]oxy}acetamido)-3,6,9,12-tetraoxatetradecan-1-yl]oxy}pyridin-4-yl)amino]-3-(4-ethanesulfonamidophenyl)-1H-pyrazole-4-carboxamide] | 1 to 10 | < 10 | > 10000 | > 10000 | – | –
4 | Cc1ncsc1-c1ccc(CNC(=O)[C@@H]2C[C@@H](O)CN2C(=O)[C@@H](NC(=O)CCCCOC(=O)c2ccc(Nc3[nH]nc(-c4ccc(NS(=O)(=O)C(F)F)c(F)c4)c3C(N)=O)nc2)C(C)(C)C)cc1 [Compound 1053] | 1 to 10 | < 10 | 1000 to 10000 | > 10000 | – | –
5 | Cc1ncsc1-c1ccc(CNC(=O)[C@@H]2C[C@@H](O)CN2C(=O)[C@@H](NC(=O)CN2CCC(Oc3ccc(Nc4[nH]nc(-c5ccc(NS(=O)(=O)C(F)F)c(O[C@@H](C)c6ccc(F)cc6)c5)c4C(N)=O)nc3)CC2)C(C)(C)C)cc1 [Compound 1050, 3-[4-(difluoromethanesulfonamido)-3-[(1S)-1-(4-fluorophenyl)ethoxy]phenyl]-5-[(5-{[1-({[(2S)-1-[(2S,4R)-4-hydroxy-2-({[4-(4-methyl-1,3-thiazol-5-yl)phenyl]methyl}carbamoyl)pyrrolidin-1-yl]-3,3-dimethyl-1-oxobutan-2-yl]carbamoyl}methyl)piperidin-4-yl]oxy}pyridin-2-yl)amino]-1H-pyrazole-4-carboxamide] | < 1 | 10 to 1000 | 1000 to 10000 | > 10000 | – | –

The next lines start with results.

Row | DC50 (endogenous MLKL in U937) [µM] | Kd (MLKL (full length)) [nM] | SMILES | IC50 ([1]; Homo sapiens, U-937) [nM] | IC50 (U937 cells; [2]) [nM] | IC50 [1] [nM] | IC50 (U937 cells; Table 38, read-out: Off-target effect (IC50 cell-based assay)) [nM]
6 | 1 to 10 | < 10 | CCS(=O)(=O)Nc1ccc(-c2n[nH]c(Nc3ccc(C(=O)NCC(=O)N[C@@H](C(=O)N4C[C@@H](O)C[C@@H]4C(=O)NCc4ccc(-c5scnc5C)cc4)C(C)(C)C)cn3)c2C(N)=O)cc1O[C@H](C)c1ccc(F)cc1 (stereo in doubt) [Compound 1026, 3-{4-ethanesulfonamido-3-[(1R)-1-(4-fluorophenyl)ethoxy]phenyl}-5-({5-[({[(2R)-1-[(2R,4S)-4-hydroxy-2-({[4-(4-methyl-1,3-thiazol-5-yl)phenyl]methyl}carbamoyl)pyrrolidin-1-yl]-3,3-dimethyl-1-oxobutan-2-yl]carbamoyl}methyl)carbamoyl]pyridin-2-yl}amino)-1H-pyrazole-4-carboxamide] | 1000 to 10000 | > 10000 | – | –
7 | < 1 | 10 to 1000 | CCS(=O)(=O)Nc1ccc(-c2n[nH]c(Nc3ccc(C(=O)OCCCCC(=O)N[C@H](C(=O)N4CC(O)C[C@H]4C(=O)NCc4ccc(-c5scnc5C)cc4)C(C)(C)C)cn3)c2C(N)=O)cc1O[C@@H](C)c1ccc(F)cc1 (stereo in doubt) [Compound 1056, 4-{[(2S)-1-[(2S,4S)-4-hydroxy-2-({[4-(4-methyl-1,3-thiazol-5-yl)phenyl]methyl}carbamoyl)pyrrolidin-1-yl]-3,3-dimethyl-1-oxobutan-2-yl]carbamoyl}butyl 6-[(4-carbamoyl-3-{4-ethanesulfonamido-3-[(1S)-1-(4-fluorophenyl)ethoxy]phenyl}-1H-pyrazol-5-yl)amino]pyridine-3-carboxylate] | – | – | < 1000 | > 10000
8 | 1 to 10 | < 10 | CCS(=O)(=O)Nc1ccc(-c2n[nH]c(Nc3ccc(C(=O)NCCCCC(=O)N[C@@H](C(=O)N4C[C@@H](O)C[C@@H]4C(=O)NCc4ccc(-c5scnc5C)cc4)C(C)(C)C)cn3)c2C(N)=O)cc1OC(C)c1ccc(F)cc1 (stereo in doubt) [Compound 1029, 3-{4-ethanesulfonamido-3-[(1R)-1-(4-fluorophenyl)ethoxy]phenyl}-5-({5-[(4-{[(2R)-1-[(2R,4S)-4-hydroxy-2-({[4-(4-methyl-1,3-thiazol-5-yl)phenyl]methyl}carbamoyl)pyrrolidin-1-yl]-3,3-dimethyl-1-oxobutan-2-yl]carbamoyl}butyl)carbamoyl]pyridin-2-yl}amino)-1H-pyrazole-4-carboxamide] | < 1000 | > 10000 | – | –
9 | < 1 | < 10 | CCS(=O)(=O)Nc1ccc(-c2n[nH]c(Nc3ccc(C(=O)OCCCCCC(=O)N[C@H](C(=O)N4C[C@H](O)C[C@H]4C(=O)NCc4ccc(-c5scnc5C)cc4)C(C)(C)C)cn3)c2C(N)=O)cc1O[C@@H](C)c1ccc(F)cc1 [Compound 1057, 5-{[(2S)-1-[(2S,4R)-4-hydroxy-2-({[4-(4-methyl-1,3-thiazol-5-yl)phenyl]methyl}carbamoyl)pyrrolidin-1-yl]-3,3-dimethyl-1-oxobutan-2-yl]carbamoyl}pentyl 6-[(4-carbamoyl-3-{4-ethanesulfonamido-3-[(1S)-1-(4-fluorophenyl)ethoxy]phenyl}-1H-pyrazol-5-yl)amino]pyridine-3-carboxylate] | < 1000 | > 10000 | – | –
10 | < 1 | < 10 | Cc1ncsc1-c1ccc(CNC(=O)[C@@H]2C[C@@H](O)CN2C(=O)[C@@H](NC(=O)CCCCCOc2ccc(Nc3[nH]nc(-c4ccc(NS(=O)(=O)C(F)F)c(O[C@@H](C)c5ccc(F)cc5)c4)c3C(N)=O)nc2)C(C)(C)C)cc1 [Compound 1048, 3-[4-(difluoromethanesulfonamido)-3-[(1S)-1-(4-fluorophenyl)ethoxy]phenyl]-5-({5-[(5-{[(2S)-1-[(2S,4R)-4-hydroxy-2-({[4-(4-methyl-1,3-thiazol-5-yl)phenyl]methyl}carbamoyl)pyrrolidin-1-yl]-3,3-dimethyl-1-oxobutan-2-yl]carbamoyl}pentyl)oxy]pyridin-2-yl}amino)-1H-pyrazole-4-carboxamide] | < 1000 | > 10000 | – | –
